The source of these data is patent US20220030850A1, “CRYOPRESERVATIVE COMPOSITIONS AND METHODS” (REGENTS OF THE UNIVERSITY OF MINNESOTA, priority 2015, published 2022).

For one assay, the system named is H9-MSCs. The assay can be described thus: MSC vial freezing, post-thaw recovery and two-hour attachment (Example 5). It counts as cell-based, human. Particulars: DMSO, room temperature pre-freeze incubation; 1° C./min; FIG. 21C. Here is the method:
Optimized solutions were prepared at double (2×) the final freezing concentration and added stepwise to cells in NORMOSOL-R (Hospira, Inc., Lake Forest, Ill.) at a 1:1 final volume ratio in a freezing vial (NALGENE, Nalge Nunc, Penfield, N.Y.). Control cells in media were similarly combined stepwise with DMSO at a 1:1 final volume ratio. Each of these vials was incubated at room temperature for 0 hours, one hour, or two hours. Experimental solutions were frozen using a 3° C./min cooling rate protocol described below, while DMSO solutions were frozen using a 1° C./min cooling rate protocol on a controlled rate freezer (Kryo 10 Series III, Planer PLC, Middlesex, United Kingdom). […]
Samples were submerged in a 37° C. bath to just under cap level, and agitated until only a small ice crystal was present. The cells were combined with acridine orange/propidium iodide (AO/PI) and counted using a hemocytometer. […]
Cell attachment of samples post-thaw was measured using a fluorescent plate reader. […] After two hours or 24 hours, these paired plates were washed with PBS, 1 μM calcein-acetoxymethyl (AM) dye was added, and then analyzed for fluorescence on a plate reader. Raw fluorescence values were used to calculate the number of live cells present in each well by correlating to a control curve of cells seeded at known densities. […]

For the next assay, the system named is Jurkat cells. The assay can be described thus: 96-well plate freezing, post-thaw scaled raw recovery (calcein-AM/PI). It counts as cell-based. Here is the method:
The first phase of this study involved using the DE algorithm to develop a three-component cryopreservation solution used at a single cooling rate (1° C./min). Three components (trehalose, glycerol, and ectoine (TGE)) were selected as components of the exemplary freezing medium used for preservation of Jurkat cells, a hematopoietic model cell type, based on pre-screening of multiple non-DMSO components. For this single cooling rate study, the DE algorithm was programmed to output 18 vector solutions per generation with a weight=0.85 and a crossover=1. Jurkat cells cryopreserved in 10% DMSO at a cooling rate of 1° C./min were used as a control.
Cooling rate influences cell survival, and the preferred cooling rate for a given application can depend, at least in part, on the composition of the freezing medium and the cell type being frozen. […] To assess both cooling rate and the composition of the solution, the DE algorithm was programmed to output 27 vector solutions per generation with weight=0.85 and a crossover=1. Solutions were separated into categories based on their DE algorithm defined cooling rate, and were frozen in batches at a cooling rate of […], 0.5° C./min, 1° C./min, 3° C./min, 5° C./min, or 10° C./min. Results were normalized and scaled raw recovery is reported, allowing results from all cooling rates and all generations to be compared directly. […]
(§1) After 96 well plates were thawed, calcein-acetoxymethyl (AM)/propidium iodide was added to each well and the wells were covered from light and placed in a 37° C. incubator for 30 minutes to allow the live cells to cleave calcein-AM. The plates were then analyzed for fluorescence on a plate reader. Raw fluorescence values were used to calculate the number of live and dead cells present in each well by correlating to a control curve of unfrozen cells. The live cell recovery was calculated by dividing the number of live cells present in thawed samples (calcein-AM plate reader fluorescence) by the number of live cells seeded pre-freeze (AO/PI counts). […]

The next assay concerns mesenchymal stem cells. The assay is described as above. It counts as cell-based, human. Particulars: 10% DMSO at 1° C./min, control.
Text: FIG. 2 and FIG. 3 relate to a three-component TGE solution tested with Jurkat cells. […] These components were selected based on pre-screening experiments performed to identify combinations with high potential recovery. The DE algorithm was programmed to output 27 vector solutions per generation with a weight=0.85 and a crossover=1. Experimental testing and result normalization was similar to the methods described above.
In both screening and DE algorithm experiments, cells were frozen in 96-well plates to limit the number of cells and volumes of reagent necessary, and to increase the number of samples that could be tested at one time. Solutions were made at 2× their final concentration in distilled H2O (diH2O). […]
as §1

For `C[S+](C)[O-]` [DMSO, dimethyl sulfoxide], in the assay with H9-MSCs, the “attachment of cells, effect of incubation prior to freezing” value is listed as “significantly reduced” and the “cell recovery, effect of incubation prior to freezing” value is “did not alter”. The “recovery of Jurkat cells” value in the assay on Jurkat cells (10% DMSO at 1° C./min, control, 96-well) was 16%. The “recovery for MSCs” value with mesenchymal stem cells is on record as 21%.

On to `OC[C@H]1O[C@@](CO)(O[C@H]2O[C@H](CO)[C@@H](O)[C@H](O)[C@H]2O)[C@@H](O)[C@@H]1O` [Sucrose], for which the “recovery of Jurkat cells, sugar synergy study” value in the assay on Jurkat cells (150, 300, 600 mM total sugar, FIG. 8) was “outperformed monosaccharides”.
